Measurements as given in publication PMC8344022, “Small-molecule inhibitor of AF9/ENL-DOT1L/AF4/AFF4 interactions suppresses malignant gene expression and tumor growth” (Theranostics, 2021).

Key:
[1] = test system: MV4;11 cells; assay: Antiproliferation assay (XTT); type: cell-based; details: 14-day incubation, read-out: Cytotoxicity EC50
Description: (§1) Antiproliferation assay. Proliferation inhibition assays for suspension blood cancer cells were performed using an XTT assay kit (Roche). Proliferation inhibition assays for solid tumor cell lines MCF-7, MDA-MB-231, Panc1, Panc28 were performed using an MTT assay (Sigma). The antiproliferation EC50 values were determined using Prism 5 and the reported results were the mean values of at least three independent experiments. The incubation time for compound 1 was 7 days and that for EPZ4777 was 14 days.

[2] = test system: Molm-13 cells; assay: Antiproliferation assay (XTT); type: cell-based; details: 14-day incubation, read-out: Cytotoxicity EC50
Description: as §1

[3] = test system: RPMI-8226 cells; assay: Antiproliferation assay (XTT); type: cell-based; details: 14-day incubation, read-out: Cytotoxicity EC50
Description: as §1

[4] = test system: U266 cells; assay: Antiproliferation assay (XTT); type: cell-based; details: 14-day incubation, read-out: Cytotoxicity EC50
Description: as §1

[5] = test system: MCF-7 cells; assay: Antiproliferation assay (MTT); type: cell-based; details: 14-day incubation, read-out: Cytotoxicity EC50
Description: as §1

[6] = test system: MDA-MB-231 cells; assay: Antiproliferation assay (MTT); type: cell-based; details: 14-day incubation, read-out: Cytotoxicity EC50
Description: as §1

[7] = test system: Panc-1 cells; assay: Antiproliferation assay (MTT); type: cell-based; details: 14-day incubation, read-out: Cytotoxicity EC50
Description: as §1

[8] = test system: Panc-28 cells; assay: Antiproliferation assay (MTT); type: cell-based; details: 14-day incubation, read-out: Cytotoxicity EC50
Description: as §1

[9] = test system: nuclear protein levels in Molm-13 cells; assay: Western blot of nuclear proteins; type: cell-based; details: 3 days
Description: Next, we investigated how compound 1 affects these transcription cofactors in the nucleus, where they regulate gene expression. […] DOT1L inhibitor EPZ4777 [25] reduced the methylation levels of H3K79, but not other proteins (Figure 3B). […] In this regard, despite lack of activity against DOT1L, compound 1 can mimic EPZ4777 to reduce H3K79 methylation.
Western blot. 3x10^6 cells/well were treated with increasing concentrations of a compound for 3 days and nuclear proteins extracted with the EpiQuik Nuclear Extraction Kit (Epigentek) according to the manufacturer's protocol. Equal amounts of proteins were separated on SDS-PAGE and transferred to PVDF membranes. The blots were probed with primary antibodies, followed by anti-rabbit or anti-mouse IgG (Thermo Scientific) secondary antibodies. The primary antibodies used in this research were MBP Mouse mAb (#2396, Cell signaling), DOT1L Rabbit mAb (#77087, Cell signaling), MLL-N Rabbit mAb (#14689, Cell signaling), ENL Rabbit mAb (#14893, Cell signaling), Di-Methyl-Histone H3K79 Rabbit mAb (#5427, Cell signaling), Mono-Methyl-Histone H3K79 Rabbit mAb (#9398, Cell signaling), Histone H3 Rabbit mAb (#4499, Cell signaling), AF4 Rabbit pAb (#NBP1-28705, Novusbio) and AFF4 Rabbit pAb (#ab103586, Abcam).

[10] = test system: HoxA9, Meis1 and Myc expression in MV4;11 cells; assay: qPCR of MLL target genes; type: cell-based; details: 4 days
Description: (§2) Next, compound 1 was tested for its ability to change expression of characteristic MLL-r leukemia genes HoxA9, Meis1 and Myc. Myc is also overexpressed in a broad range of AML and other cancers. […] (Figure S5), presumably because SEC is not recruited there.
(§3) RNA extraction and Quantitative real-time PCR (qPCR). 10^5 cells/ml were incubated with a compound for 4 days and the RNA was extracted using RNeasy mini kit (#74104, Qiagen). 100-1000 ng of total RNA was reverse transcribed using iScript™ Reverse Transcription Supermix (Bio-Rad) using the manufacturer's protocol. Quantitative real-time PCR was carried out using Fast SYBR Green Master Mix (Applied Biosystems) according to the manufacturer's instructions. Measurements were performed in triplicate, using GAPDH as the reference gene. Real-time PCR was performed using Biosystems Step One Plus detection system. The following sequences of primers are used: […]

[11] = test system: HoxA9, Meis1 and Myc expression in Molm-13 cells; assay: qPCR of MLL target genes; type: cell-based; details: 4 days
Description: as §2, §3

[12] = test system: H3K79me2 at gene promoters in Molm-13 cells; assay: Chromatin immunoprecipitation (ChIP)-qPCR; type: cell-based; details: 2 μM
Description: as §2
Chromatin immunoprecipitation. […] Cells were lysed with nuclear lysis buffer and sonicated to ~100-1000 bp fragments, which was incubated at 4 °C overnight with the H3K79me2 antibody (#5427, Cell signaling) and IgG (C15410206, Diagenode). Protein A/G Magnetic Beads (10 µL, Novus Biologicals) were added and incubated for 2 h. The beads were washed 3x with RIPA buffer and 2x with TE buffer. DNA on the beads was eluted for 2 hours at 68 °C in 100 μL of an elution buffer (20 mM Tris pH 7.5, 5 mM EDTA, 50 mM NaCl, 1% SDS, 50 μg/ml proteinase K) (2x), and purified using a ChIP DNA Clean & Concentrator kit (Novus Biologicals). qPCR was done using the method described above.

[13] = test system: THP-1 cells; parameters: method as in earlier work; details: read-out: Cytotoxicity EC50; cited from earlier work
[14] = test system: HL60 cells; parameters: method as in earlier work; details: read-out: Cytotoxicity EC50; cited from earlier work
[15] = test system: Kasumi-1 cells; parameters: method as in earlier work; details: read-out: Cytotoxicity EC50; cited from earlier work
[16] = test system: Jurkat cells; parameters: method as in earlier work; details: read-out: Cytotoxicity EC50; cited from earlier work

Structure (SMILES): CC(C)N(CCCNC(=O)Nc1ccc(C(C)(C)C)cc1)C[C@H]1O[C@@H](n2ccc3c(N)ncnc32)[C@H](O)[C@@H]1O [EPZ4777, reference compound]
- EC50 [1]: 1.1 ± 0.3 µM
- EC50 [2]: 1.2 ± 0.2 µM
- EC50 [3]: > 50 µM
- EC50 [4]: > 50 µM
- EC50 [5]: > 50 µM
- EC50 [6]: > 50 µM
- EC50 [7]: > 50 µM
- EC50 [8]: > 50 µM
- Nuclear levels of DOT1L, H3K79me1 and me2, ENL and AFF4 [9]: only reduced those of H3K79me1 and me2, but not other proteins
- Expression of MLL target genes HoxA9, Meis1 and Myc [10]: behaved similarly
- Expression of MLL target genes HoxA9, Meis1 and Myc [11]: behaved similarly
- H3K79me2 in the gene promoters of HoxA9 and Myc [12]: decreased levels of H3K79me2
- EC50 [13]: 3.4 µM
- EC50 [14]: > 50 µM
- EC50 [15]: 33 µM
- EC50 [16]: > 50 µM
